Assay results as given in US20230321253A1, “BIFUNCTIONAL COMPOUNDS AND PHARMACEUTICAL USES THEREOF” (RISEN (SUZHOU) PHARMA TECH CO., LTD., priority 2022, published 2023).
pIC50: −log10 of the molar value.

What was measured:
KRAS-G12D protein = target: T1, KRAS-G12D protein (Homo sapiens, UniProt P01116, G12D); assay: KRAS-G12D protein degradation study in Aspc-1 cells (western blot); type: cell-based; conditions: for inhibition at 1 µM / inhibition at 0.05 µM: ASPC1, 24 h, 24 hours; for inhibition at 1 µM: Aspc-1 cells treated with 1 μM compound, read-out: Rate of protein degradation (KRAS^G12D); for inhibition at 0.05 µM: Aspc-1 cells treated with 50 nM compound, read-out: Rate of degradation (KRAS^G12D); for DC50: Aspc-1 cells, read-out: DC50 of test compound-induced KRAS^G12D protein degradation
T1 construct: host or cells: Aspc-1 cells
Procedure, shortened: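 AsPC-1 cells were treated with compound for 24 h at 37° C (0.1% DMSO final), then lysed; KRAS levels measured by western blot. Degradation % = 1 − (KRAS/GAPDH, compound) ÷ (KRAS/GAPDH, DMSO), ×100; DC50 derived from concentration curves.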

Aspc-1 cells = assay: Cell proliferation study in Aspc-1 cells (Cell Titer Glo); type: cell-based; conditions: Homo sapiens, ASPC1, 72 hours, read-out: IC50, inhibitory effect on cellular proliferation
Protocol: Aspc-1 (Cobioer, CBP60546) cells were grown in RPMI 1640 (Gibco, 61870127) supplemented with 10% fetal bovine serum (Gibco, 10099141), 1% penicillin-streptomycin (Gibco, 15070-063). Aspc-1 cells in exponential growth phase were seeded into 96-well plate (Corning, 3599) at density of 4×10^3/well. Cells were cultured overnight at 37° C. with 5% CO2. On the next day, cells were treated with test compound at various concentrations for 72 hours in 37° C., 5% CO2 incubator (final DMSO concentration was 0.1%). After treatment, 100 μL Cell Tier Glo (Promega, G7573) was added to every well of the cell plates and the plates were incubated at room temperature (RT) for 10 minutes. Cell growth status was measured with Cell Tier Glo (Promega, G7573) following the manufacturer's instructions. The inhibition curve was obtained with GraphPad 7.0 software using four-parameter equation.

T1 sequence (P01116 1-188 isoform P01116-2 G12D): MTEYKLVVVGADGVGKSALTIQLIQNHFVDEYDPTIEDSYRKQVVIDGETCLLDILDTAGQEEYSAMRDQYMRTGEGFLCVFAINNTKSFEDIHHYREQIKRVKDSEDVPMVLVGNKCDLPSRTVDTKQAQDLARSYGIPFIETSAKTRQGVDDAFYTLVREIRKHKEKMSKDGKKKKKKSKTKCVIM

Compound	inhibition at 1 µM (KRAS-G12D protein) [%]	pIC50 (Aspc-1 cells)	inhibition at 0.05 µM (KRAS-G12D protein) [%]	DC50 (KRAS-G12D protein) [nM]
C#Cc1c(F)ccc2cc(O)cc(-c3ncc4c(N5CC6CCC(C5)N6)nc(OC5CCN(CCCCCCCCCC(=O)N[C@H](C(=O)N6C[C@H](O)C[C@H]6C(=O)NCc6ccc(-c7scnc7C)cc6)C(C)(C)C)CC5)nc4c3F)c12 [Compound 41]	> 60	6.00 to 7.00	–	–
C#Cc1c(F)ccc2cc(O)cc(-c3ncc4c(N5CC6CCC(C5)N6)nc(OCC5(CN6CCC7(CC6)CC(N6CCC(c8ccc9c%10c(cccc8%10)C(=O)N9C8CCC(=O)NC8=O)CC6)C7)CC5)nc4c3F)c12 (stereo not shown) [Compound 158]	–	> 7.00	> 60	< 10
C#Cc1c(F)ccc2cc(O)cc(-c3ncc4c(N5CC6CCC(C5)N6)nc(OCCN5CCN(CCCCCCCC(=O)N[C@H](C(=O)N6C[C@H](O)C[C@H]6C(=O)NCc6ccc(-c7scnc7C)cc6)C(C)(C)C)CC5)nc4c3F)c12 [Compound 32]	11 to 30	5.30 to 6.00	–	–
C#Cc1c(F)ccc2cc(O)cc(-c3ncc4c(N5CC6CCC(C5)N6)nc(OCCCN5CCN(CCCCCCC(=O)N[C@H](C(=O)N6C[C@H](O)C[C@H]6C(=O)NCc6ccc(-c7scnc7C)cc6)C(C)(C)C)CC5)nc4c3F)c12 [Compound 29]	31 to 60	5.30 to 6.00	–	–
C#Cc1c(F)ccc2cc(O)cc(-c3ncc4c(N5CC6CCC(C5)N6)nc(OCC5(CN6CCC7(CC6)CC(N6CCN(c8ccc9c(c8)C(=O)N(C8CCC(=O)NC8=O)C9=O)CC6)C7)CC5)nc4c3F)c12 (stereo not shown) [Compound 154]	–	> 7.00	> 60	< 10
C#Cc1c(F)ccc2cc(O)cc(-c3ncc4c(N5CC6CCC(C5)N6)nc(OCC5(CN6CC7(CC(N8CCC(c9ccc%10c(C%11CCC(=O)NC%11=O)nn(C)c%10c9)CC8)C7)C6)CC5)nc4c3F)c12 (stereo not shown) [Compound 169]	–	> 7.00	> 60	–
C#Cc1c(F)ccc2cc(O)cc(-c3ncc4c(N5CC6CCC(C5)N6)nc(OCC5(CN6CCC(CN7CCN(c8cccc9c8C(=O)N(C8CCC(=O)NC8=O)C9=O)CC7)CC6)CC5)nc4c3F)c12 (stereo not shown) [Compound 135]	–	> 7.00	31 to 60	< 10
C#Cc1c(F)ccc2cc(O)cc(-c3ncc4c(N5CC6CCC(C5)N6)nc(OCC5(CN6CCC(CN7CCC(c8ccc9c%10c(cccc8%10)C(=O)N9C8CCC(=O)NC8=O)CC7)CC6)CC5)nc4c3F)c12 (stereo not shown) [Compound 168]	–	> 7.00	> 60	–
C#Cc1c(F)ccc2cc(O)cc(-c3ncc4c(N5CC6CCC(C5)N6)nc(OCC5(CN6CCC(CN7CCC(c8ccc9c(C%10CCC(=O)NC%10=O)nn(C)c9c8)CC7)CC6)CC5)nc4c3F)c12 (stereo not shown) [Compound 133]	–	> 7.00	> 60	< 10
C#Cc1c(F)ccc2cc(O)cc(-c3ncc4c(N5CC6CCC(C5)N6)nc(OCC5(CN6CCC(CCN7CCC(c8ccc9c(C%10CCC(=O)NC%10=O)nn(C)c9c8)CC7)CC6)CC5)nc4c3F)c12 (stereo not shown) [Compound 149]	–	> 7.00	> 60	< 10
